SMILES strings stand for the structures.

The subject of one test is MC38-OVA tumor. Briefly: MC38-OVA tumor growth and weight in Tim3fl.fl and Tim3fl.flxCD11c cre mice under inflammasome pathway inhibition. It is filed as in vivo. The conditions noted are these: Tim-3cko mice, 8 mg/kg. From the text:
FIGS. 4A-4W: Loss of Tim3 on DC promotes inflammasome activation. (FIG. 4A) Unidirectional analysis of the fraction of DCs expressing ligand X and the fraction of T cells expressing the cognate Receptor; Ligand (MigDC): Receptor (CD8) interaction from WT (left) and Tim3cko (right) tumors. (FIG. 4B) Bar plot of data from FIG. 4A. (FIG. 4C). ECDF plots showing enrichment of IL-18 signature and (FIG. 4D) IL-1 signature in WT and Tim3^ckoCD8+ TILs. (FIG. 4E) ECDF plot of enrichment score for inflammasome signature in WT or Tim3^cko migratory DC, (p=1.5*10^−03), (FIG. 4F) Dot plot of selected genes from inflammasome signature. (FIG. 4G) ECDF plot of enrichment score for Oxidative Stress signature, (FIG. 4H) Dot plot of selected genes from Oxidative Stress signature. (FIG. 4I) MC38-OVA (0.5×10^6 cells) were subcutaneously implanted into Tim3^fl.fl and Tim3^fl.flxCD11c cre mice and on D14 tumors mononuclear cells were isolated and incubated with DHR123 for 30 minutes followed by flow-cytometric analysis of activated DHR123 as a measure of ROS activity in tumor infiltrating DC. […]
The C57BL/6-derived colon carcinoma MC38 and MC38-OVAdim were maintained at 37° C. with 5% CO2 in DMEM medium supplemented with 10% heat-inactivated fetal calf serum, penicillin, and streptomycin and 1% Sodium Pyruvate. […] Tumor size was determined by the formula L×W where L=length, W=width on the indicated days. […]

The test system of a further test is IL-1β. Briefly: IL-1β levels in tumor supernatants of WT and Tim3cko animals with or without NAC. The format is in vivo, mice. The conditions noted are these: Tim3cko tumors; NAC in drinking water 40 mM. From the text: (§1) To investigate the effect of oxidative stress in Tim3^cko tumor bearing animals the inventors implanted Tim3^fl.fl and Tim3^fl.flZbtb46 cre mice with MC38-OVAdim and treated with or without antioxidant N-Acetyl-Cysteine (NAC) for the duration of the experiment. […] To determine whether mitigation of oxidative stress in Tim3^cko tumors also affected IL-1β levels intratumorally, the inventors prepared tumor supernatants and determined the levels of IL-1β in WT and Tim3cko animals treated with or without NAC.
(§2) The C57BL/6-derived colon carcinoma MC38 and MC38-OVAdim were maintained at 37° C. with 5% CO2 in DMEM medium supplemented with 10% heat-inactivated fetal calf serum, penicillin, and streptomycin and 1% Sodium Pyruvate. The C57BL/6-derived melanoma cell lines-B16 and B16-OVA-transfected clone were maintained at 37° C. with 5% CO2 in RPMI medium supplemented with 10% heat-inactivated fetal calf serum, penicillin, and streptomycin. MC38- OVA^dim (0.5×10^6), B16F10/B16-OVA (0.25×10^6) and MC38 (1.0×10^6) cells were injected subcutaneously in 100 μl PBS on the flank. Tumor size was determined by the formula L×W where L=length, W=width on the indicated days. In some experiments, mice were treated with anti-IL-1β (B122) and anti-IL-18 (YIGIF74-1 G7) or appropriate control Hamster Ig and Rat IgG2a (all at 8 mg/kg) i.p. on days 3, 6, 9 post tumor implantation. […]

The next test has as its system MC38-OVAdim tumor. The test is described as follows: MC38-OVAdim tumor growth and weight in Tim3fl.fl and Tim3fl.flZbtb46 cre mice with or without NAC. The format is in vivo. The conditions noted are these: Tim3cko mice, NAC daily in drinking water 40 mM.
Description: as §1, §2

Regarding `CC(C)(O)c1coc(S(=O)(=O)[N-]C(=O)Nc2c3c(cc4c2CCC4)CCC3)c1.[Na+]` [CRID3], the “protective anti-tumor immunity observed in the Tim-3cko” value in the test with MC38-OVA tumor is “abolished the protective anti-tumor immunity”.

In the case of `CC(=O)N[C@@H](CS)C(=O)O` [NAC, N-Acetyl-Cysteine], in the test with IL-1β, the “elevated intratumoral IL-1β levels (tumor supernatants)” value was “completely reversed”. Also, in the test with MC38-OVAdim tumor, the “protective inhibition of tumor growth (tumor growth)” value is “completely abrogated” and the “protective inhibition of tumor growth (tumor weights post-harvest)” value is “completely abrogated”.

Values taken from US20240262909A1, “TIM-3 MODULATES ANTI-TUMOR IMMUNITY BY REGULATING INFLAMMASOME ACTIVATION” (THE BRIGHAM AND WOMEN'S HOSPITAL, INC., priority 2021, published 2024).
